Assay results reported in patent US10294202B2, “Pyrrolidinones as herbicides” (FMC Corporation, priority 2013, dated 2019).

Legend:
galium = experiment: Test C pre-/postemergence herbicide test; format: in vivo, Galium aparine; conditions: Postemergence
Outline: (§1)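 Test compounds, formulated in a surfactant-containing non-phytotoxic solvent blend, are applied to seeded loam/sand soil (preemergence) and to young plants at the 1- to 4-leaf stage in peat-based medium (postemergence). Plants stay 13 to 15 days under greenhouse conditions, then are scored visually relative to controls, 0 = no effect, 100 = complete control.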

lambsquarters = experiment: Test C pre-/postemergence herbicide test; format: in vivo, Chenopodium album
Outline: as §1

morningglory = experiment: Test C pre-/postemergence herbicide test; format: in vivo, Ipomoea coccinea
Outline: as §1

giant foxtail = experiment: Test A pre-/postemergence herbicide test; format: in vivo, Setaria faberii
Outline: (§2)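 Planted in loam–sand blend; treated the same day preemergence by directed soil spray, while separately grown plants at one- to two-leaf stage got postemergence spray. Compared visually with untreated controls after approximately 10 days; 100 means complete control.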

crabgrass, large = experiment: Test C pre-/postemergence herbicide test; format: in vivo, Digitaria sanguinalis
Outline: as §1

barnyardgrass [1] = experiment: Test C pre-/postemergence herbicide test; format: in vivo, Echinochloa crus-galli
Outline: as §1

oat, wild = experiment: Test C pre-/postemergence herbicide test; format: in vivo, Avena fatua; conditions: Postemergence
Outline: as §1

velvetleaf = experiment: Test C pre-/postemergence herbicide test; format: in vivo, Abutilon theophrasti
Outline: as §1

barnyardgrass [2] = experiment: Test A pre-/postemergence herbicide test; format: in vivo, Echinochloa crus-galli
Outline: as §2

pigweed = experiment: Test A pre-/postemergence herbicide test; format: in vivo, Amaranthus retroflexus
Outline: as §2

waterhemp = experiment: Test C pre-/postemergence herbicide test; format: in vivo, Amaranthus rudis
Outline: as §1

foxtail, giant = experiment: Test C pre-/postemergence herbicide test; format: in vivo, Setaria faberii
Outline: as §1

[3] = 8 g ai/ha, scale 0 to 100 (0 no effect, 100 complete control)
[4] = 16 g ai/ha, scale 0 to 100 (0 no effect, 100 complete control)
[5] = 31 g ai/ha, scale 0 to 100 (0 no effect, 100 complete control)
[6] = 62 g ai/ha, scale 0 (no effect) to 100 (complete control)
[7] = Postemergence, 8 g ai/ha, scale 0 to 100 (0 no effect, 100 complete control)
[8] = Postemergence, 16 g ai/ha, scale 0 to 100 (0 no effect, 100 complete control)
[9] = Postemergence, 31 g ai/ha, scale 0 to 100 (0 no effect, 100 complete control)
[10] = Postemergence, 62 g ai/ha, scale 0 (no effect) to 100 (complete control)
[11] = Preemergence, 31 g ai/ha, scale 0 to 100, 0 is no effect and 100 is complete control
[12] = Preemergence, 62 g ai/ha, scale 0 to 100 (0 no effect, 100 complete control)
[13] = Preemergence, 8 g ai/ha, scale 0 to 100
[14] = Preemergence, 16 g ai/ha, scale 0 to 100
[15] = Postemergence, 125 g ai/ha, 0 to 100 scale, 0 is no effect, 100 is complete control
[16] = Postemergence, 500 g ai/ha, 0 to 100 scale (0 no effect, 100 complete control)
[17] = Preemergence, 125 g ai/ha, 0 to 100 scale where 0 is no effect and 100 is complete control
[18] = preemergence, 500 g ai/ha, 0 to 100 scale, 0 is no effect and 100 is complete control

Q: What does the source list for `CN1CC(c2ccc(F)cc2)C(C(=O)Nc2cccc(F)c2F)C1=O` (stereo not shown) [Compound 271]?
A: Plant response rating, Galium (galium; [3]): 0; Plant response rating, Galium (galium; [4]): 5; Plant response rating, Galium (galium; [5]): 30; Plant response rating, Galium (galium; [6]): 30; Plant response rating, Lambsquarters (lambsquarters; [7]): 10; Plant response rating, Lambsquarters (lambsquarters; [8]): 45; Plant response rating, Lambsquarters (lambsquarters; [9]): 50; Plant response rating, Lambsquarters (lambsquarters; [10]): 55; Lambsquarters plant response rating (lambsquarters; [11]): 0; Lambsquarters plant response rating (lambsquarters; [12]): 20; Plant response rating, Lambsquarters (lambsquarters; [13]): 0; Plant response rating, Lambsquarters (lambsquarters; [14]): 0; Plant response rating, Morningglory (morningglory; [7]): 0; Plant response rating, Morningglory (morningglory; [8]): 0; Plant response rating, Morningglory (morningglory; [9]): 10; Plant response rating, Morningglory (morningglory; [10]): 45; Morningglory plant response rating (morningglory; [11]): 0; Morningglory plant response rating (morningglory; [12]): 10; Plant response rating, Morningglory (morningglory; [13]): 0; Plant response rating, Morningglory (morningglory; [14]): 0; Plant response rating, Foxtail, Giant (giant foxtail; [15]): 90; Plant response rating, Foxtail, Giant (giant foxtail; [16]): 90; Plant response rating, Foxtail, Giant (giant foxtail; [17]): 90; Plant response rating, Foxtail, Giant (giant foxtail; [18]): 90; Plant response rating, Crabgrass, Large (crabgrass, large; [7]): 0; Plant response rating, Crabgrass, Large (crabgrass, large; [8]): 0; Plant response rating, Crabgrass, Large (crabgrass, large; [9]): 5; Plant response rating, Crabgrass, Large (crabgrass, large; [10]): 5; Crabgrass, Large plant response rating (crabgrass, large; [11]): 95; Crabgrass, Large plant response rating (crabgrass, large; [12]): 100; Plant response rating, Crabgrass, Large (crabgrass, large; [13]): 50; Plant response rating, Crabgrass, Large (crabgrass, large; [14]): 90; Plant response rating, Barnyardgrass (barnyardgrass [1]; [7]): 0; Plant response rating, Barnyardgrass (barnyardgrass [1]; [8]): 0; Plant response rating, Barnyardgrass (barnyardgrass [1]; [9]): 0; Plant response rating, Barnyardgrass (barnyardgrass [1]; [10]): 0; Barnyardgrass plant response rating (barnyardgrass [1]; [11]): 90; Barnyardgrass plant response rating (barnyardgrass [1]; [12]): 95; Plant response rating, Barnyardgrass (barnyardgrass [1]; [13]): 0; Plant response rating, Barnyardgrass (barnyardgrass [1]; [14]): 75; Plant response rating, Oat, Wild (oat, wild; [3]): 0; Plant response rating, Oat, Wild (oat, wild; [4]): 0; Plant response rating, Oat, Wild (oat, wild; [5]): 0; Plant response rating, Oat, Wild (oat, wild; [6]): 0; Plant response rating, Velvetleaf (velvetleaf; [7]): 0; Plant response rating, Velvetleaf (velvetleaf; [8]): 0; Plant response rating, Velvetleaf (velvetleaf; [9]): 5; Plant response rating, Velvetleaf (velvetleaf; [10]): 5; Velvetleaf plant response rating (velvetleaf; [11]): 0; Velvetleaf plant response rating (velvetleaf; [12]): 10; Plant response rating, Velvetleaf (velvetleaf; [13]): 0; Plant response rating, Velvetleaf (velvetleaf; [14]): 0; Plant response rating, Barnyardgrass (barnyardgrass [2]; [15]): 90; Plant response rating, Barnyardgrass (barnyardgrass [2]; [16]): 90; Plant response rating, Barnyardgrass (barnyardgrass [2]; [17]): 90; Plant response rating, Barnyardgrass (barnyardgrass [2]; [18]): 90; Plant response rating, Pigweed (pigweed; Postemergence, 125 g ai/ha, visual rating on 0 to 100 scale (0 no effect, 100 complete control), approx. 10 days): 0; Plant response rating, Pigweed (pigweed; [16]): 20; Plant response rating, Pigweed (pigweed; [17]): 40; Plant response rating, Pigweed (pigweed; [18]): 80; Plant response rating, Waterhemp (waterhemp; [7]): 0; Plant response rating, Waterhemp (waterhemp; [8]): 0; Plant response rating, Waterhemp (waterhemp; [9]): 0; Plant response rating, Waterhemp (waterhemp; [10]): 5; Waterhemp plant response rating (waterhemp; [11]): 0; Waterhemp plant response rating (waterhemp; [12]): 35; Plant response rating, Waterhemp (waterhemp; [13]): 0; Plant response rating, Waterhemp (waterhemp; [14]): 0; Plant response rating, Foxtail, Giant (foxtail, giant; [7]): 0; Plant response rating, Foxtail, Giant (foxtail, giant; [8]): 0; Plant response rating, Foxtail, Giant (foxtail, giant; [9]): 0; Plant response rating, Foxtail, Giant (foxtail, giant; [10]): 0; Foxtail, Giant plant response rating (foxtail, giant; [11]): 90; Foxtail, Giant plant response rating (foxtail, giant; [12]): 98; Plant response rating, Foxtail, Giant (foxtail, giant; [13]): 55; Plant response rating, Foxtail, Giant (foxtail, giant; [14]): 75
